Data published in BindingDB's records for doi:10.1002/cbic.201500668 (University of Siena, 2016).

How the values were obtained:
[1] = target: T1, Gag-Pol polyprotein (Human immunodeficiency virus type 1 group M subtype B (isolate NY5), UniProt P12497); assay: RNA-dependent DNA Polymerase (RDDP) Assay; details: pH 8.1; 37 °C
Experimental: RNA-dependent DNA polymerase (RDDP) activity was measured as described[J. Microbiol. […] After enzyme addition, the reaction mixture was incubated for 30 min at 37 °C, then the reaction was stopped by addition of EDTA.

[2] = target: T1, Gag-Pol polyprotein; assay: RNase H (RH) Assay; details: pH 7.8; 37 °C
Experimental: HIV RT-associated RNase H activity was measured as previously described.[J. Med. Chem. 2014, 57:3223-3234] Briefly, the reaction mixture comprised Tris HCl ([…], 50 mm, pH 7.8) containingMgCl2 (6 mm), dithiothreitol (1 mm), KCl (80 mm), hybrid RNA/DNA 5'-GAUCU GAGCC UGGGA GCU-Fluorescin-3' (0.25 mm; HPLC, dry, QC: Mass Check; Metabion, Steinkirchen, Germany), 5'-Dabcyl-AGCTC CCAGG CTCAG ATC-3' (HPLC, dry, QC: Mass Check), and HIV-1 RT (20 ng, according to a linear range of dose-activity curve). The reaction mixture was incubated for 1 h at 37 °C, and the reaction was stopped by addition of EDTA; products were measured with a Victor 3 multilabel counter plate reader (model 1420-051; PerkinElmer) equipped with filters (lex=490 nm, lem=528 nm).

Row | Structure (SMILES) | IC50 [1] [µM] | IC50 [2] [µM]
1 | CCOc1ccc(N2CC(O)Cn3c2nc2c3c(=O)n(CC(N)=O)c(=O)n2C)cc1 (stereo unspecified) [STOCK5S-55040 (5)] | > 100 | –
2 | CCCCCn1c(=O)c2c(nc3n2CC(C)CN3c2ccc(OC)cc2)n(C)c1=O (stereo unspecified) [STOCK4S-37006 (4)] | 100 | 97
3 | CCOC(=O)C(=O)CC(=O)/C=C/c1cccn1Cc1ccccc1Cl [RDS1759] | – | 7.5
4 | CCc1ccc(N2CC(O)Cn3c2nc2c3c(=O)n(C)c(=O)n2C)cc1 (stereo unspecified) [STOCK2S-18057 (3)] | > 100 | –
5 | CCOc1ccc(N2CC(O)Cn3c2nc2c3c(=O)n(CC(=O)OCc3ccccc3)c(=O)n2C)cc1 (stereo unspecified) [STOCK4S-60534 (6)] | 28.5 | 33
6 | CCCCCn1c(=O)c2c(nc3n2CCCN3c2ccc(Oc3ccccc3)cc2)n(C)c1=O [STOCK5S-18255 (2)] | 69 | 25
7 | Cn1c(=O)c2c(nc3n2CC(O)CN3c2ccc(O)cc2)n(C)c1=O (stereo unspecified) [MAS0 (1)] | > 100 | 100
